Source: patent US9434711B2 (Janssen Pharmaceutica, NV, priority 2007, dated 2016)
pIC50: −log10 of the molar value.

Molecular target: canine TRPM8 (Canis lupus familiaris, UniProt Q1A7N1)
Assay: In Vitro Canine TRPM8 Functional Assay (Ca2+ fluorescence, icilin activation)
Assay type: cell-based
Settings: for pIC50: HEK293 cells stably expressing canine TRPM8, icilin activation, eight-point dose-response, read-out: IC50; for inhibition at 0.2 µM / % Inh @ 0.2 (μM): compound at 0.2 μM; for inhibition at 0.2 µM / inhibition at 0.5 µM / % Inh @ 0.2 (μM): canine TRPM8, icilin activation; for inhibition at 0.2 µM: read-out: % Inh @ 0.2; for inhibition at 0.5 µM: compound at 0.5 μM, read-out: % Inh @ 0.5
In short: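 Readout is the intracellular Ca2+ fluorescence change, measured by FLIPR or FDSS, in HEK293 cells stably expressing canine TRPM8. Potency (EC50 or IC50) is fitted from eight concentrations averaged over quadruplicate wells.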

Chain of canine TRPM8 (Q1A7N1 1-1104): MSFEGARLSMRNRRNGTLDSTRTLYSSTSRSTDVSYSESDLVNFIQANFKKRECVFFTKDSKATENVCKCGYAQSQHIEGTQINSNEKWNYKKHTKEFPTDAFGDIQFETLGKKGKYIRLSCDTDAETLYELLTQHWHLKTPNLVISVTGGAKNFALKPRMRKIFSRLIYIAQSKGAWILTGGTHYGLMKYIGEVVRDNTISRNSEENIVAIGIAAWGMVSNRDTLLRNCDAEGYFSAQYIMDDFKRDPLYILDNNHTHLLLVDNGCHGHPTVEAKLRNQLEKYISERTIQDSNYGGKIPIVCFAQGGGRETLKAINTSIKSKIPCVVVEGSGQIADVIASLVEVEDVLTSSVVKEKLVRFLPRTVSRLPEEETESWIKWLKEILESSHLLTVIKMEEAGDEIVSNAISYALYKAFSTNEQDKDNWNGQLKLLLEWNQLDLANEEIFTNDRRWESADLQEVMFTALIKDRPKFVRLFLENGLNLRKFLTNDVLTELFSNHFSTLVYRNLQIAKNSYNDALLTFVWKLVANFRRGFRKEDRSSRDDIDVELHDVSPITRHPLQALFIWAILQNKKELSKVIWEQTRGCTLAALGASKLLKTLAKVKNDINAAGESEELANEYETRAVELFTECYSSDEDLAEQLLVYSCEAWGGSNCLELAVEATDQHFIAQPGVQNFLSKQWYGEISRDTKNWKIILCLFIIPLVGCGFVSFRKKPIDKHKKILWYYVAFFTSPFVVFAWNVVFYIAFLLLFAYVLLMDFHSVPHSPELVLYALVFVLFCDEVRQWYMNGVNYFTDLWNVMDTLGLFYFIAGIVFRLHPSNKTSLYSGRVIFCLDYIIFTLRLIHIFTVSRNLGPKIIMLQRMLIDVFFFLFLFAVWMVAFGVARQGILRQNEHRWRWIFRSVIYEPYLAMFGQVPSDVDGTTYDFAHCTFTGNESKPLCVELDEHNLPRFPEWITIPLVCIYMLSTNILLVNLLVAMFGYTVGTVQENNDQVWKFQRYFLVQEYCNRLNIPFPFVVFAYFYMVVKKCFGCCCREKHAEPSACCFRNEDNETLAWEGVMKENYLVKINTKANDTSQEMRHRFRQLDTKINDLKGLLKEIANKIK

SMILES	pIC50	inhibition at 0.2 µM [%]	inhibition at 0.5 µM [%]	% Inh @ 0.2 (μM) [%]
CC(O)c1c(N(Cc2ccc(F)c(C(F)(F)F)c2)S(C)(=O)=O)sc2ccccc12 (stereo not drawn) [Compound 224, N-(4-Fluoro-3-trifluoromethyl-benzyl)-N-[3-(1-hydroxy-ethyl)-benzo[b]thiophen-2-yl]-methanesulfonamide]	9.00	100		
COC(=O)[C@@H](C)CN(c1sc2ccccc2c1Br)S(=O)(=O)c1ccccc1 [Compound 244, N-(3-Bromo-benzo[b]thiophen-2-yl)-N-[2(S)-methyl-2-carbomethoxy-ethyl]-benzenesulfonamide]		100		
O=S(=O)(c1ccccc1)N(Cc1cccc(F)c1)c1cc2ccccc2s1 [Compound 3, N-Benzo[b]thiophen-2-yl-N-(3-fluoro-benzyl)-benzenesulfonamide]	7.46		98	
CCS(=O)(=O)N(CCN1CCOCC1)c1sc2ccccc2c1C(C)=O [Compound 124, N-(3-Acetyl-benzo[b]thiophen-2-yl)-N-(2-morpholin-4-yl-ethyl)-ethanesulfonamide]		14		
O=S(=O)(c1ccccc1)N(Cc1ccc(OC(F)(F)F)cc1)c1sc2ccccc2c1Cl [Compound 6, N-(3-Chloro-benzo[b]thiophen-2-yl)-N-(4-trifluoromethoxy-benzyl)-benzenesulfonamide]	7.95		99	
Cc1c(N(Cc2ccc(OC(F)(F)F)cc2)S(=O)(=O)c2ccc3ncccc3c2)sc2ccccc12 [Compound 31, N-(3-Methyl-benzo[b]thiophen-2-yl)-N-(4-trifluoromethoxy-benzyl)-quinoline-6-sulfonamide]	7.66		100	
Cc1c(N(Cc2cccc3cccnc23)S(=O)(=O)c2cc3ccccc3s2)sc2ccccc12 [Compound 19, N-(3-Methyl-benzo[b]thiophen-2-yl)-N-(quinolin-8-ylmethyl)-benzo[b]thiophene-2-sulfonamide]			58	
CC(C)(O)c1c(N(Cc2ccc(F)c(C(F)(F)F)c2)S(=O)(=O)c2ccc(Br)cc2)sc2ccccc12 [Compound 388]	7.72			97
O=S(=O)(c1ccccc1)N(CC1CCCCC1)c1cc2ccccc2s1 [Compound 118, N-(Benzo[b]thiophen-2-yl)-N-(cyclohexylmethyl)-benzenesulfonamide]	7.32		100	
CNC(=O)c1c(N(Cc2ccc(F)c(C(F)(F)F)c2)S(=O)(=O)c2ccccc2)sc2ccccc12 [Compound 458, N-(3-Methyl-carbamoyl-benzo[b]thiophen-2-yl)-N-(4-fluoro-3-trifluoromethyl-benzyl)-benzenesulfonamide]	7.92			102
Cc1c(N(CCCCC(F)(F)F)S(=O)(=O)c2ccc(C(=O)[O-])cc2)sc2ccccc12.[Na+] [Compound 545, Sodium, N-(3-Methylbenzo[b]thiophen-2-yl)-N-(5,5,5-trifluoro-pentyl)-4-carboxy-benzenesulfonamide]	8.72			104.78
CCS(=O)(=O)N(CCOC(C)(C)C)c1sc2ccccc2c1C(C)O (stereo not drawn) [Compound 283, N-(2-tert-Butoxyethyl)-N-(3-(1-hydroxyethyl)benzo[b]thiophen-2-yl)-ethanesulfonamide]	7.04	82		
COc1ccc2c(Br)c(N(Cc3ccc(F)c(F)c3)S(=O)(=O)c3cccnc3)sc2c1 [Compound 141, N-(3-Bromo-6-methoxy-benzo[b]thiophen-2-yl)-N-(3,4-difluoro-benzyl)-pyridin-3-yl-sulfonamide]		18		
Cc1nc(O)nc(O)c1S(=O)(=O)N(Cc1ccc(F)c(C(F)(F)F)c1)c1sc2ccccc2c1C [Compound 72, N-(3-Methyl-benzo[b]thiophen-2-yl)-N-(4-fluoro-3-trifluoromethylbenzyl)-(2,4-dihydroxy-6-methyl-pyrimidine-5-yl)sulfonamide]	7.59	99		
O=S(=O)(c1ccccc1)N(Cc1cccc2cccnc12)c1sc2ccccc2c1Cl [Compound 5, N-(3-Chloro-benzo[b]thiophen-2-yl)-N-quinolin-8-ylmethyl-benzenesulfonamide]	7.20		97	
O=C(O)c1ccc(S(=O)(=O)N(CCC2CC2)c2cc3ccccc3s2)c(F)c1 [Compound 638, N-(3-Benzo[b]thiophen-2-yl)-N-(2-cyclopropyl-ethyl)-2-fluoro-4-carboxy-benzenesulfonamide]	7.22			100
O=S(=O)(c1cccc(F)c1)N(Cc1ccc(F)c(F)c1)c1sc2ccccc2c1Br [Compound 155, N-(3-Bromo-benzo[b]thiophen-2-yl)-N-(3,4-difluoro-benzyl)-3-fluoro-benzenesulfonamide]	8.40		99	
CS(=O)(=O)N(Cc1ccc(F)c(C(F)(F)F)c1)c1cc2ccccc2s1 [Compound 45, N-(Benzo[b]thiophen-2-yl)-N-(4-fluoro-3-trifluoromethyl-benzyl)-methanesulfonamide]	7.28	97		

Continued, in another order:

pIC50	inhibition at 0.2 µM [%]	inhibition at 0.5 µM [%]	SMILES	% Inh @ 0.2 (μM) [%]
7.31	79		Cc1c(N(Cc2ccc(F)c(C(F)(F)F)c2)S(=O)(=O)CCCCn2ccnc2)sc2ccccc12 [Compound 779, N-(4-Fluoro-3-trifluoromethyl-benzyl)-N-(3-methyl-benzo[b]thiophen-2-yl)-4-(imidazol-1-yl)-butane-1-sulfonamide]	
7.06	80		Cc1c(N(Cc2ccc(F)c(C(F)(F)F)c2)S(=O)(=O)c2cnc(Cl)c(Br)c2)sc2ccccc12 [Compound 330, N-(3-Methyl-benzo[b]thiophen-2-yl)-N-(4-fluoro-3-trifluoromethyl-benzyl)-5-bromo-6-chloro-pyridin-3-ylsulfonamide]	
8.00	100		O=S(=O)(c1ccc(Cl)nc1)N(Cc1ccc(F)c(C(F)(F)F)c1)c1sc2ccccc2c1Br [Compound 320, N-(3-Bromo-benzo[b]thiophen-2-yl)-N-(4-fluoro-3-trifluoromethyl-benzyl)-2-chloro-pyridin-5-ylsulfonamide]	
6.84	72		CS(=O)(=O)Nc1ccc(S(=O)(=O)N(Cc2ccc(F)c(C(F)(F)F)c2)c2sc3ccccc3c2Cl)c(O)c1 [Compound 780, N-(3-Chloro-benzo[b]thiophen-2-yl)-N-(4-fluoro-3-trifluoromethyl-benzyl)-2-hydroxy-4-methanesulfonylamino-benzenesulfonamide]	
8.40	89		CCCCN(C1=C(OC)c2ccccc2S1(=O)=O)S(=O)(=O)c1ccc(C(=O)OC)cc1 [Compound 436, N-(Butyl)-N-(3-methoxy-1,1-dioxo-1H-benzo[b]thiophen-2-yl)-4-carbomethoxy-benzenesulfonamide]	
7.70	88		O=S1(=O)C(N(Cc2ccc(F)c(C(F)(F)F)c2)S(=O)(=O)c2ccccc2)=C(Br)c2ccccc21 [Compound 431, N-(3-Bromo-1,1-dioxo-benzo[b]thiophen-2-yl)-N-(4-fluoro-3-trifluoromethyl-benzyl)-benzenesulfonamide]	
8.14	96		Cc1c(N(Cc2ccc(F)c(C(F)(F)F)c2)S(=O)(=O)CCCCBr)sc2ccccc12 [Compound 771, N-(4-Fluoro-3-trifluoromethyl-benzyl)-N-(3-methyl-benzo[b]thiophen-2-yl)-4-bromo-butane-1-sulfonamide]	
9.10	101		Cc1c(N(Cc2c(F)c(F)c(F)c(F)c2F)S(=O)(=O)c2ccc(C(=O)O)cc2)sc2ccccc12 [Compound 493, N-(3-Methyl-benzo[b]thiophen-2-yl)-N-(2,3,4,5,6-pentafluoro-benzyl)-4-carboxy-benzenesulfonamide]	
7.50	89		CC1=C(N(Cc2ccc(F)c(C(F)(F)F)c2)S(=O)(=O)c2ccccc2)S(=O)(=O)c2ccccc21 [Compound 622, N-(4-Fluoro-3-trifluoromethyl-benzyl)-N-(3-methyl-1,1-dioxo-benzo[b]thiophen-2-yl)-benzenesulfonamide]	
7.29	84		CCCCN(c1sc2ccccc2c1C)S(C)(=O)=O [Compound 363, N-(Butyl)-N-(3-methyl-benzo[b]thiophen-2-yl)-methanesulfonamide]	
	28		Cc1c(N(Cc2ccc(F)c(C(F)(F)F)c2)S(=O)(=O)c2nc3ccccc3n2C)sc2ccccc12 [Compound 722, N-(3-Methyl-benzo[b]thiophen-2-yl)-N-(4-fluoro-3-trifluoromethyl-benzyl)-1-methyl-1H-benzimidazole-2-sulfonamide]	
8.12	101		CCCCN(c1sc2ccccc2c1C)S(=O)(=O)c1ccc(C(=O)O)cc1F [Compound 593, N-(3-Methyl-benzo[b]thiophen-2-yl)-N-(butyl)-2-fluoro-4-carboxy-benzenesulfonamide]	
7.17	85.7		Cc1c(N(Cc2ccc(F)c(C(F)(F)F)c2)S(=O)(=O)c2cccc(C#N)c2)sc2ccccc12 [Compound 546, N-(4-Fluoro-3-trifluoromethyl-benzyl)-N-(3-methyl-benzo[b]thiophen-2-yl)-3-cyano-benzenesulfonamide]	
	31		Cc1c(N(Cc2ccc(OC(F)(F)F)cc2)S(=O)(=O)c2nc3ccccc3n2C)sc2ccccc12 [Compound 746, N-(3-Methyl-benzo[b]thiophen-2-yl)-N-(4-trifluoromethoxy-benzyl)-1-methyl-1H-benzimidazole-2-sulfonamide]	
7.11	85.4		COC(=O)c1ccc(S(=O)(=O)N(Cc2ccc(F)c(C(F)(F)F)c2)c2sc3ccccc3c2C2CC2)cc1 [Compound 674, N-(3-Cyclopropyl-benzo[b]thiophen-2-yl)-N-(4-fluoro-3-trifluoromethyl-benzyl)-4-carbomethoxy-benzenesulfonamide]	
